Measured values: ChEMBL document CHEMBL1201862, “PubChem BioAssay data set” (2004)
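Dose response: 5 concentrations. Exposure: 48 h. Format: 96-well plates. Endpoint: linear interpolation; highest concentration if not reached. Abbreviation: GI50, concentration required for 50% inhibition of growth.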 Activity calls are given as the source filed them. No stated cut-off is given here; in the data, active = GI50 up to about 1.1 µM and inactive = higher.

How the values were obtained:
Experiment in all cases: growth of human tumour cells (NCI), 48 h
T47D = tested on: T47D
SR = tested on: SR
SK-MEL-28 = tested on: SK-MEL-28
BT-549 = tested on: BT-549
IGROV-1 = tested on: IGROV-1
NCI-H23 = tested on: NCI-H23
MDA-N = tested on: MDA-N
OVCAR-5 = tested on: OVCAR-5
SNB-75 = tested on: SNB-75
SK-MEL-5 = tested on: SK-MEL-5
SN12C = tested on: SN12C
COLO 205 = tested on: COLO 205
Malme-3M = tested on: Malme-3M
KM12 = tested on: KM12
786-0 = tested on: 786-0
LOX IMVI = tested on: LOX IMVI
UACC-257 = tested on: UACC-257
HCT-15 = tested on: HCT-15
HOP-62 = tested on: HOP-62
NCI-H460 = tested on: NCI-H460

SMILES	GI50 (T47D)	GI50 (SR)	GI50 (SK-MEL-28)	GI50 (BT-549)	GI50 (IGROV-1)	GI50 (NCI-H23)	GI50 (MDA-N)	GI50 (OVCAR-5)	GI50 (SNB-75)	GI50 (SK-MEL-5)	GI50 (SN12C)	GI50 (COLO 205)	GI50 (Malme-3M)	GI50 (KM12)	GI50 (786-0)	GI50 (LOX IMVI)	GI50 (UACC-257)	GI50 (HCT-15) [µM]	GI50 (HOP-62)	GI50 (NCI-H460)
COc1ccc(CC[N+]2(C)COc3cc4oc(=O)cc(C)c4cc3C2)cc1OC (configuration not stated)	> 100 µM (inactive)	0.0782 µM (active)	> 100 µM (inactive)	> 100 µM (inactive)	> 100 µM (inactive)	> 100 µM (inactive)	> 100 µM (inactive)	> 100 µM (inactive)	> 100 µM (inactive)	> 100 µM (inactive)	> 100 µM (inactive)	> 100 µM (inactive)	> 100 µM (inactive)	> 100 µM (inactive)	> 100 µM (inactive)	> 100 µM (inactive)	> 100 µM (inactive)	> 100	> 100 µM (inactive)	–
N#CC1(C#N)C(c2ccccc2)C=CC(c2ccc([N+](=O)[O-])cc2)C1(C#N)C#N (configuration not stated)	2.61 µM (inactive)	2.53 µM (inactive)	15.8 µM (inactive)	10.4 µM (inactive)	14 µM (inactive)	12.4 µM (inactive)	6.22 µM (inactive)	17.1 µM (inactive)	24.7 µM (inactive)	10.7 µM (inactive)	4.83 µM (inactive)	1.57 µM (inactive)	–	22.1 µM (inactive)	2.67 µM (inactive)	2.35 µM (inactive)	16.3 µM (inactive)	3.69	17.3 µM (inactive)	30.3 µM (inactive)
CN(C)CCOc1ccc([N+](=O)[O-])c2cccnc12	> 100 µM (inactive)	> 100 µM (inactive)	> 100 µM (inactive)	> 100 µM (inactive)	> 100 µM (inactive)	> 100 µM (inactive)	79.1 µM (inactive)	> 100 µM (inactive)	40.8 µM (inactive)	> 100 µM (inactive)	60.4 µM (inactive)	43 µM (inactive)	> 100 µM (inactive)	> 100 µM (inactive)	> 100 µM (inactive)	–	86.9 µM (inactive)	> 100	> 100 µM (inactive)	> 100 µM (inactive)
COc1ccc(OC)c2c1-c1nnnn1CCC2(C)C	> 100 µM (inactive)	> 100 µM (inactive)	> 100 µM (inactive)	> 100 µM (inactive)	> 100 µM (inactive)	> 100 µM (inactive)	> 100 µM (inactive)	> 100 µM (inactive)	> 100 µM (inactive)	–	> 100 µM (inactive)	> 100 µM (inactive)	> 100 µM (inactive)	> 100 µM (inactive)	> 100 µM (inactive)	> 100 µM (inactive)	> 100 µM (inactive)	> 100	> 100 µM (inactive)	> 100 µM (inactive)
Cc1ccc(O)c(C(=O)/C=C/c2ccccc2)c1	> 100 µM (inactive)	> 100 µM (inactive)	> 100 µM (inactive)	> 100 µM (inactive)	> 100 µM (inactive)	> 100 µM (inactive)	> 100 µM (inactive)	> 100 µM (inactive)	49 µM (inactive)	> 100 µM (inactive)	> 100 µM (inactive)	> 100 µM (inactive)	–	1.37 µM (inactive)	> 100 µM (inactive)	> 100 µM (inactive)	> 100 µM (inactive)	> 100	> 100 µM (inactive)	> 100 µM (inactive)
COc1ccc(/C=C/C(=O)N[C@@H]2C(=O)N3[C@@H]2SC(C)(C)[C@@H]3C(=O)O)cc1OC	> 100 µM (inactive)	> 100 µM (inactive)	> 100 µM (inactive)	> 100 µM (inactive)	–	> 100 µM (inactive)	> 100 µM (inactive)	> 100 µM (inactive)	> 100 µM (inactive)	> 100 µM (inactive)	> 100 µM (inactive)	> 100 µM (inactive)	–	> 100 µM (inactive)	> 100 µM (inactive)	> 100 µM (inactive)	> 100 µM (inactive)	> 100	> 100 µM (inactive)	> 100 µM (inactive)
C[C@H](NC1=C(Cl)C(=O)c2c(O)ccc(O)c2C1=O)C(=O)Nc1ccc([N+](=O)[O-])cc1	3.25 µM (inactive)	2.47 µM (inactive)	2.03 µM (inactive)	4.02 µM (inactive)	2.5 µM (inactive)	2.02 µM (inactive)	2.4 µM (inactive)	1.77 µM (inactive)	4.04 µM (inactive)	1.76 µM (inactive)	1.6 µM (inactive)	1.59 µM (inactive)	1.19 µM (inactive)	1.82 µM (inactive)	1.6 µM (inactive)	–	1.95 µM (inactive)	1.93	2.45 µM (inactive)	2.06 µM (inactive)
[O-][S+](c1ccccc1)c1ccc(/N=N/O)nc1 (configuration not stated)	82.6 µM (inactive)	> 100 µM (inactive)	> 100 µM (inactive)	> 100 µM (inactive)	> 100 µM (inactive)	> 100 µM (inactive)	> 100 µM (inactive)	> 100 µM (inactive)	> 100 µM (inactive)	> 100 µM (inactive)	> 100 µM (inactive)	> 100 µM (inactive)	0.492 µM (active)	> 100 µM (inactive)	> 100 µM (inactive)	–	> 100 µM (inactive)	> 100	> 100 µM (inactive)	> 100 µM (inactive)
O=C(NC1(C(=O)O)CC1c1ccccc1)c1ccccc1 (configuration not stated)	> 100 µM (inactive)	> 100 µM (inactive)	> 100 µM (inactive)	> 100 µM (inactive)	> 100 µM (inactive)	> 100 µM (inactive)	> 100 µM (inactive)	> 100 µM (inactive)	> 100 µM (inactive)	–	> 100 µM (inactive)	> 100 µM (inactive)	> 100 µM (inactive)	> 100 µM (inactive)	> 100 µM (inactive)	> 100 µM (inactive)	> 100 µM (inactive)	> 100	> 100 µM (inactive)	> 100 µM (inactive)
CCC1=NC(N/N=C/c2ccco2)=N/C1=C\c1ccccc1O	48.9 µM (inactive)	48.4 µM (inactive)	38.3 µM (inactive)	29.4 µM (inactive)	26.4 µM (inactive)	28.8 µM (inactive)	50.4 µM (inactive)	78.7 µM (inactive)	–	27.2 µM (inactive)	> 100 µM (inactive)	44.3 µM (inactive)	31 µM (inactive)	31.5 µM (inactive)	39.7 µM (inactive)	35 µM (inactive)	35.2 µM (inactive)	12.6	76.4 µM (inactive)	14.9 µM (inactive)
Cc1cc(O)c2c(c1)C(C1OC(CO)C(O)C(O)C1O)c1cc(O)cc(O)c1C2=O (configuration not stated)	> 100 µM (inactive)	> 100 µM (inactive)	> 100 µM (inactive)	> 100 µM (inactive)	> 100 µM (inactive)	> 100 µM (inactive)	> 100 µM (inactive)	> 100 µM (inactive)	> 100 µM (inactive)	> 100 µM (inactive)	> 100 µM (inactive)	> 100 µM (inactive)	> 100 µM (inactive)	–	> 100 µM (inactive)	–	> 100 µM (inactive)	> 100	> 100 µM (inactive)	> 100 µM (inactive)
